According to US10280156B2, “Heteroaromatic chalcone derivatives and their medical use” (Medizinische Universität Wien, priority 2014, dated 2019):

Test system: M2-10B4
Experiment: Viability test on mouse fibroblast cell line M2-10B4, 48 h
Assay type: cell-based
Conditions: Mus musculus, M210B4, 48 h, 48 h incubation; mouse fibroblast cell line
Experimental: All experiments with hematological cell lines were done using phenol red-free RPMI 1640+L-glutamine (PAA Laboratories) supplemented with 1% PenStrep and 10% FBS gold, except experiments with OCI-Ly7 which were carried out in Gibco IMEM+GlutaMAX and 25 mM HEPES containing 20% FBS gold and 1% PenStrep. Cells were incubated in triplicates with increasing concentrations of the compounds for 48 h, changes in viability were determined using the cell proliferation and cytotoxicity assays EZ4U (Biomedica Group, Austria) and CellTiter-Blue Cell Viability Assay (Promega, Madison, Wis., USA) following instructions of the manufacturers. IC50 values were calculated from two independent experiments using GraphPad Prism 5 software.
Structurally seen, the small molecule compound 1 represents a typical chalcone scaffold. It is characterized by an ortho-ethoxy-substituted phenyl part as ring A and a 2-naphthyl moiety symbolizing ring B. The focus of the present study was to guide the systematic identification of a growth inhibitor with specificity to neoplastic cells, as cytotoxicity towards healthy cells is mostly associated with adverse effects, which can be related to morbidity and mortality of the patient (Milligan D W et al. Brit J Haematol 2006, 135, 450-474). To discriminate in vitro between structural elements necessary for potent cytotoxicity towards tumor cells which, at the same time, clearly show less activity on normal cells, the compounds were additionally tested on the murine bone marrow fibroblast cell line M2-10B4. This cell line is regularly used as feeder layer when cultured with patient cells providing additional support and survival signals in particular in drug screens (Kurtova A V et al. Blood 2009, 114, 4441-4450).
Initially, compounds were biologically tested in six concentration steps (0.1 μM; 1 μM; 5 μM; 10 μM; 50 μM; and 100 μM) using the CellTiter-Blue Cell Viability Assay (Promega, Madison, Wis., USA) and an incubation time of 48 hours. […] IC50 values were calculated from at least two independent experiments with 3 replicates each. In order to evaluate the biologic activity of the new compounds, cytotoxicity was compared to that of fludarabine, an already approved drug for the treatment of various B-cell malignancies. […] Differences in IC50 values for the different cell types can be explained by the biological and genetic particularities of each subtype of B-cell Non-Hodgkin lymphoma (Stacchini A et al. Leukemia Res 1999, 23, 127-136; Sambade C et al. Int J Cancer 2006, 118, 555-563; Chang H et al. Leukemia lymphoma 1995, 19, 165-171; Tweeddale M E et al. Blood 1987, 69, 1307-1314; Tweeddale M et al. Blood 1989, 74, 572-578).

CCOc1ccccc1C(=O)/C=C/c1cc2ccccc2[nH]1 [Compound 15, 1-(2-Ethoxyphenyl)-3-(1H-indole-2-yl)-2-propen-1-one]
IC50: 19.2 µM
